In general, melting point refers to the temperature, or range, at which the solid turns liquid. As a reminder, the inhibition is how much of the control response was suppressed.

Where two headings read alike, the source gives them in different places.

Data set [1] deals with Mycobacterium smegmatis MC^2155 strain. The experiment in a line: Anti-mycobacterial growth inhibition assay (turbidometry, 96 well plate). Format: cell-based. The conditions noted are these: Mycolicibacterium smegmatis. The protocol: Anti-Mycobacterial Activity Assay:
Anti-mycobacterial activity of the synthesized compounds was performed with Mycobacterium smegmatis MC^2155 strain by performing a growth inhibition assay by agar dilution followed turbidometry method. The assay was semi-throughput and conducted in a 96 well plate (sterile). Isolated single colonies of M. smegmatis MC^2 155 (ATCC 14468) grown on 7H10 agar plate were grown overnight in Middlebrook 7H9 medium (0.47% Middlebrook 7H9 broth base, 10% ADS, 0.2% glycerol, and 0.1% Tween-80) to mid exponential phase at 37° C. When the OD of this culture reached approximately 0.8, a secondary culture was inoculated in 5 ml Middlebrook 7H9 medium. The secondary culture was incubated overnight and allowed to grow at 37° C. to early log phase (OD600≈0.3). For the anti-mycobacterial assay, 98 μl of 1:1000-folds dilution of secondary culture was dispensed into 96-well microtiter plate per well along with 2 μl of test compound in triplicate. 240 μl of sterile water were added to each well of the peripheral rows of 96-well plate to minimize media evaporation during assay incubation. The final concentration of the test compound in each well was 30 μM. Bacterial growth was assessed after 32 hours of incubation by measuring turbidity at 600 nm OD600 values using TECAN Infinite 200 PRO™ (Tecan Instruments, Switzerland). Depending upon the percentage of growth, the percentage of inhibition was calculated at the standard concentration of 30 μM. Isoniazid and Rifampicin were included in every assay plate as positive controls of growth inhibition using stock solutions of INH (10 mg/mL, HiMedia) and Rifampicin (10 mg/mL, HiMedia) to achieve the final concentration of 16 μg/mL for INH and 2 μg/mL for Rifampicin. Additional controls, DMSO (solvent without compound) and medium without inoculums, were included in all the assay plates avoiding intra assay variability. The results were analyzed as the percentage of growth inhibition.

[2] abbreviates: ATCC14468|MC^2155, test compound 30 μM, bacterial growth after 32 hours by OD600, M. smegmatis MC^2 155 (ATCC 14468), read-out: % Inhibition.

`CCOC(=O)C[C@@H]1[C@@H](C(NC(=O)OC(C)(C)C)c2ccccc2)CN(S(=O)(=O)c2ccc(C)cc2)[C@@H]1C(=O)OCC` (stereo partly shown) returned a melting point of 150 to 151 °C.

Turning to `CCOC(=O)C[C@@H]1[C@@H](C(NC(=O)OC(C)(C)C)c2ccc(Cl)cc2)CN(S(=O)(=O)c2ccc(C)cc2)[C@@H]1C(=O)OCC` (stereo partly shown), the melting point lay within 155 to 156 °C.

As to `CCOC(=O)C[C@@H]1[C@@H](C(NC(=O)OC(C)(C)C)c2ccc(C(F)(F)F)cc2)CN(S(=O)(=O)c2ccc(C)cc2)[C@@H]1C(=O)OCC` (stereo partly shown), the melting point lay within 169 to 170 °C.

With `CCOC(=O)C[C@@H]1[C@@H](C(NC(=O)OC(C)(C)C)c2ccc(C)cc2)CN(S(=O)(=O)c2ccc(C)cc2)[C@@H]1C(=O)OCC` (stereo partly shown), the melting point lay in the range of 177 to 178 °C.

The compound `CCOC(=O)C[C@@H]1[C@@H](C(NC(=O)OC(C)(C)C)c2ccc3ccccc3c2)CN(S(=O)(=O)c2ccc(C)cc2)[C@@H]1C(=O)OCC` (stereo partly shown) had a melting point of 160 to 161 °C.

Regarding `CCOC(=O)C[C@@H]1[C@@H](C(NC(=O)OC(C)(C)C)c2ccc(Br)cc2)CN(S(=O)(=O)c2ccc(C)cc2)[C@@H]1C(=O)OCC` (stereo partly shown), the melting point was in the range of 161 to 163 °C.

`CCOC(=O)C[C@@H]1[C@@H](C(NC(=O)OC(C)(C)C)c2ccc(F)cc2)CN(S(=O)(=O)c2ccc(C)cc2)[C@@H]1C(=O)OCC` (stereo partly shown) had a melting point of 148 to 150 °C.

In the case of `Cc1ccc(S(=O)(=O)N2C[C@H]3[C@@H](C2)OC(=O)N[C@H]3c2ccc(F)cc2)cc1`, the melting point was 207 to 211 °C.

Turning to `Cc1ccc(S(=O)(=O)N2C[C@H]([C@@H](NC(=O)OC(C)(C)C)c3ccco3)[C@H](O)C2)cc1`, the melting point fell in the range of 136 to 139 °C.

On to `CCOC(=O)C[C@H]1CN(C(=O)OC(C)C)N(C(=O)OC(C)C)[C@@H]1Cc1ccc(OC)cc1` [2e, Diisopropyl (3R,4S)-4-(2-ethoxy-2-oxoethyl)-3-(4-methoxybenzyl)pyrazolidine-1,2-dicarboxylate], for which the inhibition at 30 µM in data set [1] (setting [2]) was found to be 14%.

Take `CCOC(=O)C[C@H]1CN(C(=O)OC(C)C)N(C(=O)OC(C)C)[C@@H]1Cc1ccc(SC)cc1` [2g, Diisopropyl (3R,4S)-4-(2-ethoxy-2-oxoethyl)-3-(4-(methylthio)benzyl)pyrazolidine-1,2-dicarboxylate]: in data set [1] (setting [2]), the inhibition at 30 µM came out at 24.9%.

Take `CCOC(=O)C[C@H]1CN(C(=O)OC(C)C)N(C(=O)OC(C)C)[C@@H]1Cc1cc2c(cc1[N+](=O)[O-])OCO2` [2i, Diisopropyl(3R,4S)-4-(2-ethoxy-2-oxoethyl)-3-((6-nitrobenzo[d][1,3]dioxol-5-yl)methyl)pyrazolidine-1,2-dicarboxylate]: the inhibition at 30 µM in data set [1] (setting [2]) came to 29.3%.

`CCOC(=O)C[C@@H]1[C@@H](C(NC(=O)OC(C)(C)C)c2ccccc2)CN(S(=O)(=O)c2ccc(C)cc2)[C@@H]1C(=O)OCC` (stereo partly shown) [IA] yielded an inhibition at 30 µM in data set [1] (ATCC14468|MC^2155, 32 h) of 13.5%.

Take `CCOC(=O)C[C@@H]1[C@@H](C(NC(=O)OC(C)(C)C)c2ccc(C(F)(F)F)cc2)CN(S(=O)(=O)c2ccc(C)cc2)[C@@H]1C(=O)OCC` (stereo partly shown) [IC]: the inhibition at 30 µM in data set [1] (ATCC14468|MC^2155, 32 h) is 0.493%.

With `CCOC(=O)C[C@@H]1[C@@H](C(NC(=O)OC(C)(C)C)c2ccc3ccccc3c2)CN(S(=O)(=O)c2ccc(C)cc2)[C@@H]1C(=O)OCC` (stereo partly shown) [IE], in data set [1] (ATCC14468|MC^2155, 32 h), the inhibition at 30 µM was determined as 20.7%.

For the compound `CCOC(=O)C[C@@H]1[C@@H](C(NC(=O)OC(C)(C)C)c2ccc(Br)cc2)CN(S(=O)(=O)c2ccc(C)cc2)[C@@H]1C(=O)OCC` (stereo partly shown) [IF], in data set [1] (ATCC14468|MC^2155, 32 h), the inhibition at 30 µM turned out to be 10.8%.

The compound `CCOC(=O)C[C@@H]1[C@@H]([C@@H](NC(=O)OC(C)(C)C)c2ccc(F)cc2)CN(S(=O)(=O)c2ccc(C)cc2)[C@@H]1C(=O)OCC` [IG, ethyl (2S,3R,4R)-4-((R)-((tert-butoxycarbonyl)amino)(4-fluorophenyl)methyl)-3-(2ethoxy-2-oxoethyl)-1-tosylpyrrolidine-2-carboxylate] displayed an inhibition at 30 µM in data set [1] (ATCC14468|MC^2155, 32 h) of 18.2%.

The compound `Cc1ccc(S(=O)(=O)N2C[C@H]([C@@H](NC(=O)OC(C)(C)C)c3ccccc3)[C@H](O)C2)cc1` [Ia, tert-butyl ((R)-((3R,4S)-4-hydroxy-1-tosylpyrrolidin-3-yl)(phenyl)methyl)carbamate] displayed a melting point of 197 to 200 °C.

Compound `Cc1ccc(S(=O)(=O)N2C[C@H]([C@@H](NC(=O)OC(C)(C)C)c3ccc(Cl)cc3)[C@H](O)C2)cc1` [Ib, tert-butyl ((R)-(4-chlorophenyl)((3R,4S)-4-hydroxy-1-tosylpyrrolidin-3-yl)methyl)carbamate] displayed a melting point of 203 to 205 °C.

On to `Cc1ccc(S(=O)(=O)N2C[C@H]([C@@H](NC(=O)OC(C)(C)C)c3ccc(C(F)(F)F)cc3)[C@H](O)C2)cc1` [Ic, tert-butyl ((R)-((3R,4S)-4-hydroxy-1-tosylpyrrolidin-3-yl)(4-(trifluoromethyl)phenyl)methyl)carbamate], for which the melting point is 202 to 204 °C.

In the case of `Cc1ccc([C@H](NC(=O)OC(C)(C)C)[C@H]2CN(S(=O)(=O)c3ccc(C)cc3)C[C@H]2O)cc1` [Id, tert-butyl ((R)-((3R,4S)-4-hydroxy-1-tosylpyrrolidin-3-yl)(p-tolyl)methyl)carbamate], the melting point lay in the range of 187 to 190 °C.

Turning to `Cc1ccc(S(=O)(=O)N2C[C@H]3[C@@H](C2)OC(=O)N[C@H]3c2ccc3ccccc3c2)cc1` [Ie, (4R,4aR,7aS)-4-(naphthalen-2-yl)-6-tosylhexahydropyrrolo[3,4-e][1,3]oxazin-2(3H)-one], the melting point lay in the range of 153 to 156 °C.

For the compound `Cc1ccc(S(=O)(=O)N2C[C@H]3[C@@H](C2)OC(=O)N[C@H]3c2ccc(Br)cc2)cc1` [If, (4R, 4aR, 7aS)-4-(4-Bromophenyl)-6-tosylhexahydropyrrolo [3,4-e][1,3]oxazin-2(3H)-one], the melting point lay in the range of 210 to 213 °C.

As to `CSc1ccc([C@H](NC(=O)OC(C)(C)C)[C@H]2CN(S(=O)(=O)c3ccc(C)cc3)C[C@H]2O)cc1` [Ii, tert-Butyl ((R)-((3R, 4S)-4-hydroxy-1-tosylpyrrolidin-3-yl)(4-(methylthio)phenyl)methyl)carbamate], the melting point lay within 209 to 211 °C.

Compound `Cc1ccc(S(=O)(=O)N2C[C@H]([C@@H](NC(=O)OC(C)(C)C)c3cccs3)[C@H](O)C2)cc1` [Ij, tert-Butyl ((R)-((3R, 4S)-4-hydroxy-1-tosylpyrrolidin-3-yl)(thiophen-2-yl)methyl) carbamate] had a melting point of 186 to 189 °C.

For the origin of these results see patent US9718773B2, “Substituted 5 membered heterocyclic compounds and preparation thereof” (Council of Scientific and Industrial Research, priority 2014, dated 2017).
